The text below walks through data of patent US4166864A, “Pesticidal unsymmetrical bis-arylcarbamate disulfide compounds” (Union Carbide Corporation, priority 1977, dated 1979).

Format in all cases: in vivo
The test system of one data set is Soybean. In words: Phytotoxicity Test, soybean. On the set-up: key: 1: no perceptible injury; 2: intermediate degrees of injury based upon the number and extent to which leaves were injured; 3: intermediate degrees of injury based upon the number and extent to which leaves were injured; 4: intermediate degrees of injury based upon the number and extent to which leaves were injured; 5: the plant was dead. Particulars: 2500 ppm spray, rated after ten days. The protocol: (§1) Experiments were also conducted to determine the phytoxicity of representative compounds with respect to healthy fresh plants. Solutions of the compounds were prepared as described above to provide a concentration of 2500 parts per million of the test compound. The test plants were sprayed in accordance with the procedure described above for the Mite Foliage Spray Test so as to deliver approximately 100 milliliters of test solution to the leaves of each plant tested. The sprayed plants and controls were set aside for approximately one hour to allow the foliage to dry and were then placed in the greenhouse. After ten days the plants were visually inspected to determine the extent of foliage injury. A rating of 1 indicates no perceptible injury; 5 indicates the plant was dead and ratings of 2, 3 and 4 indicate intermediate degrees of injury based upon the number and extent to which leaves were injured.

Another data set deals with Bean. The data set is described as follows: Phytotoxicity Test, bean. Also noted: key: 1: no perceptible injury; 2: intermediate degrees of injury based upon the number and extent to which leaves were injured; 3: intermediate degrees of injury based upon the number and extent to which leaves were injured; 4: intermediate degrees of injury based upon the number and extent to which leaves were injured; 5: the plant was dead. The settings on record: 2500 ppm spray, rated after ten days. The procedure:
as §1

Another data set has as its system Tomato. The data set is described as follows: Phytotoxicity Test, tomato. Also noted: key: 1: no perceptible injury; 2: intermediate degrees of injury based upon the number and extent to which leaves were injured; 3: intermediate degrees of injury based upon the number and extent to which leaves were injured; 4: intermediate degrees of injury based upon the number and extent to which leaves were injured; 5: the plant was dead. The settings on record: 2500 ppm spray, rated after ten days. The protocol:
as §1

In a further data set the test system is Cotton. In words: Phytotoxicity Test, cotton. On the set-up: key: 1: no perceptible injury; 2: intermediate degrees of injury based upon the number and extent to which leaves were injured; 3: intermediate degrees of injury based upon the number and extent to which leaves were injured; 4: intermediate degrees of injury based upon the number and extent to which leaves were injured; 5: the plant was dead. The settings on record: 2500 ppm spray, rated after ten days. The protocol: as §1

Another data set deals with Corn. In words: Phytotoxicity Test, corn. On the set-up: key: 1: no perceptible injury; 2: intermediate degrees of injury based upon the number and extent to which leaves were injured; 3: intermediate degrees of injury based upon the number and extent to which leaves were injured; 4: intermediate degrees of injury based upon the number and extent to which leaves were injured; 5: the plant was dead. Particulars: 2500 ppm spray, rated after ten days. The procedure:
as §1

In data set [1] the test system is Mexican bean beetle (Epilachna varivestis, Muls.). The data set is described as follows: Mexican Bean Beetle Leaf Spray Test. Also noted: key: A: excellent control; B: partial control; C: no control. Particulars: 500 ppm leaf spray, three days. The procedure: (§2) Suspensions of the test compounds were prepared by dissolving one gram of compound in 50 milliliters of acetone in which had been dissolved 0.1 gram (10 percent of the weight of compound) of an alkylphenoxy polyethoxyethanol surfactant, as an emulsifying or dispersing agent. The resulting solution was mixed into 150 milliliters of water to give roughly 200 milliliters of a suspension containing the compound in finely divided form. The thus-prepared stock suspension contained 0.5 percent by weight of compound. The test concentrations in parts per million by weight employed in the tests described hereinbelow were obtained by appropriate dilutions of the stock suspension with water. The test procedures were as follows:
Fourth instar larvae of the Mexican bean beetle (Epilachna varivestis, Muls.), reared on Tendergreen bean plants at a temperature of 80°±5° F. and 50±5 percent relative humidity, were the test insects.
The test compounds were formulated by diluting the stock suspension with water to give a suspension containing 500 parts of test compound per million parts of final formulation. Potted Tendergreen bean plants of standard height and age were placed on a revolving turntable and sprayed with 100-110 milliliters of test compound formulation by use of a DeVilbiss spray gun set at 10 psig air pressure. This application, which lasted 25 seconds, was sufficient to wet plants to run-off. As a control, 100-110 milliliters of a water-acetone-emulsifier solution containing no test compound were also sprayed on infested plants. When dry, the paired leaves were separated and each was placed in a 9 centimeter Petri dish lined with moistened filter paper. Five randomly selected larvae were introduced into each dish, and the dishes were closed. The closed dishes were labeled and held at a temperature of 80°±5° F. for three days. Although the larvae could easily consume the leaf within 24 to 48 hours, no more food was added. Larvae which were unable to move the length of the body, even upon stimulation, were considered dead.
(§3) In these tests the pesticidal activity of the compounds against aphid, mite, Southerm Armyworm, Bean Beetle and house fly was rated as follows: […]

In data set [2] the test system is southern armyworm (Prodenia eridania, (Cram.)). In words: Southern Armyworm Leaf Spray Test. On the set-up: key: A: excellent control; B: partial control; C: no control. The settings on record: 500 ppm leaf spray, three days. The procedure: as §2
Larvae of the southern arymworm (Prodenia eridania, (Cram.)), reared on Tendergreen bean plants at a temperature of 80°±5° F. and a relative humidity of 50±5 percent, constituted the test insects.
The test compounds were formulated by diluting the stock suspension with water to give a suspension containing 500 parts of test compound per million parts of final formulation. Potted Tendergreen bean plants of standard height and age were placed on a revolving turntable and sprayed with 100-110 milliliters of test compound formulation by use of a DeVilbiss spray gun set at 10 psig air pressure. This application, which lasted 25 seconds, was sufficient to wet plants to run-off. As a control, 100-110 milliliters of a water-acetone-emulsifier solution containing no test compound were also sprayed on infested plants. When dry, the paired leaves were separated and each one was placed in a 9 centimeter Petri dish lined with moistened filter paper. Five randomly selected larvae were introduced into each dish and the dishes were closed. The closed dishes were labeled and held at 80°-85° F. for three days. Although the larvae could easily consume the whole leaf within twenty-four hours, no more food was added. Larvae which were unable to move the length of the body, even upon stimulation by prodding, were considered dead. Percent mortality was recorded for various concentration levels.
as §3

Data set [3] concerns house flies (Musca domestica, L.). In words: Fly Bait Test. Also noted: key: A: excellent control; B: partial control; C: no control. Particulars: 500 ppm in sugar-solution bait, twenty four hours. The protocol:
as §2
Four to six day old adult house flies (Musca domestica, L.) reared according to the specifications of the Chemical Specialties Manufacturing Association (Blue Book, McNair-Dorland Co., N.Y. 1954; pages 243-244, 261) under controlled conditions of 80°±5° F. and 50±5 percent relative humidity, were the test insects. The flies were immobilized by anesthetizing with carbon dioxide and twenty five immobilized individuals, males and females, were transferred to a cage consisting of a standard food strainer about five inches in diameter which was inverted over a wrapping-paper-covered surface. The test compounds were formulated by diluting the stock suspension with a 10 percent (by weight) sugar solution to give a suspension containing 500 parts of test compound per million parts of final formulation, by weight. Ten milliliters of the test formulation were added to a souffle cup containing a one-inch square of an absorbent cotton pad. This bait cup was introduced and centered on the blotting paper under the food strainer prior to admitting the anesthetized flies. The caged flies were allowed to feed on the bait for twenty four hours, at a temperature of 80°±5° F. and the relative humidity of 50±5 percent.
as §3

As for `C#CCOc1ccccc1OC(=O)N(C)SSN(C)C(=O)Oc1cccc2c1OC(C)(C)C2`, in the data set on Soybean, the “Phytotoxicity, Soybean” value amounted to 2. In addition, the “Phytotoxicity, Bean” value in the data set on Bean amounted to 1. Moreover, the “Phytotoxicity, Tomato” value in the data set with Tomato is on record as 1. Also, in the data set on Cotton, the “Phytotoxicity, Cotton” value is 1. Moreover, the “Phytotoxicity, Corn” value with Corn is listed as 1. The “Insecticidal activity rating, Mexican Bean Beetle” value in data set [1] is recorded as “A”. Moreover, in data set [2], the “Insecticidal activity rating, Southern Armyworm” value is “A”. Also, the “Insecticidal activity rating, Housefly” value in data set [3] is “A”.

`CN(SSN(C)C(=O)Oc1cccc2ccccc12)C(=O)Oc1cccc2c1OC(C)(C)C2`: the “Phytotoxicity, Soybean” value with Soybean was found to be 1. In the data set on Bean, the “Phytotoxicity, Bean” value was determined as 1. Also, the “Phytotoxicity, Tomato” value in the data set on Tomato came out at 1. Further, the “Phytotoxicity, Cotton” value with Cotton stood at 1. In the data set on Corn, the “Phytotoxicity, Corn” value was determined as 1. In data set [1], the “Insecticidal activity rating, Mexican Bean Beetle” value is “A”. Besides, in data set [2], the “Insecticidal activity rating, Southern Armyworm” value is “A”. Besides, the “Insecticidal activity rating, Housefly” value in data set [3] is “A”.

Consider `CSc1ccc(OC(=O)N(C)SSN(C)C(=O)Oc2cccc3c2OC(C)(C)C3)cc1C`, for which the “Phytotoxicity, Soybean” value with Soybean stood at 1. For the same molecule, the “Phytotoxicity, Bean” value in the data set with Bean came to 1. In the data set on Tomato, the “Phytotoxicity, Tomato” value stood at 1. For the same molecule, the “Phytotoxicity, Cotton” value in the data set on Cotton worked out at 1. Moreover, the “Phytotoxicity, Corn” value with Corn worked out at 1. The “Insecticidal activity rating, Mexican Bean Beetle” value in data set [1] is “A”. Further, the “Insecticidal activity rating, Southern Armyworm” value in data set [2] was “A”. In data set [3], the “Insecticidal activity rating, Housefly” value was “A”.

Regarding `Cc1cc(C)cc(OC(=O)N(C)SSN(C)C(=O)Oc2cccc3c2OC(C)(C)C3)c1`, in the data set with Soybean, the “Phytotoxicity, Soybean” value worked out at 1. Moreover, the “Phytotoxicity, Bean” value in the data set with Bean turned out to be 1. The “Phytotoxicity, Tomato” value in the data set on Tomato came out at 1. Also, in the data set on Cotton, the “Phytotoxicity, Cotton” value worked out at 1. The “Phytotoxicity, Corn” value with Corn is 1. In addition, in data set [1], the “Insecticidal activity rating, Mexican Bean Beetle” value is listed as “A”. For the same molecule, in data set [2], the “Insecticidal activity rating, Southern Armyworm” value is recorded as “A”. Also, the “Insecticidal activity rating, Housefly” value in data set [3] is reported as “A”.

Regarding `CN(SSN(C)C(=O)Oc1cccc2c1OC(C)(C)C2)C(=O)Oc1cccc(N(C)C)c1`, the “Phytotoxicity, Soybean” value in the data set with Soybean amounted to 1. Moreover, the “Phytotoxicity, Bean” value in the data set with Bean stood at 1. The “Phytotoxicity, Tomato” value in the data set on Tomato turned out to be 1. Moreover, in the data set with Cotton, the “Phytotoxicity, Cotton” value came to 1. In the data set on Corn, the “Phytotoxicity, Corn” value is on record as 1. The “Insecticidal activity rating, Mexican Bean Beetle” value in data set [1] is given as “A”. Moreover, in data set [2], the “Insecticidal activity rating, Southern Armyworm” value is given as “A”. The “Insecticidal activity rating, Housefly” value in data set [3] was “A”.

In the case of `CN(SSN(C)C(=O)Oc1cccc2c1OC(C)(C)C2)C(=O)Oc1ccc2c(c1)OCO2`, the “Phytotoxicity, Soybean” value in the data set with Soybean amounted to 1. Further, the “Phytotoxicity, Bean” value in the data set on Bean is given as 1. In the data set on Tomato, the “Phytotoxicity, Tomato” value is listed as 1. For the same molecule, the “Phytotoxicity, Cotton” value in the data set with Cotton amounted to 1. The “Phytotoxicity, Corn” value with Corn is 1. For the same molecule, the “Insecticidal activity rating, Mexican Bean Beetle” value in data set [1] is recorded as “A”. Moreover, in data set [2], the “Insecticidal activity rating, Southern Armyworm” value is “A”. Besides, the “Insecticidal activity rating, Housefly” value in data set [3] is “A”.

Consider `CN(SSN(C)C(=O)Oc1ccccc1C1SCCS1)C(=O)Oc1ccc(C(C)(C)C)cc1`, for which the “Phytotoxicity, Soybean” value in the data set on Soybean was 1. Moreover, the “Phytotoxicity, Bean” value with Bean amounted to 1. Besides, in the data set with Tomato, the “Phytotoxicity, Tomato” value was 1. Besides, the “Phytotoxicity, Cotton” value in the data set on Cotton was 1. Moreover, the “Phytotoxicity, Corn” value in the data set with Corn worked out at 1. In data set [1], the “Insecticidal activity rating, Mexican Bean Beetle” value is “A”. Also, the “Insecticidal activity rating, Southern Armyworm” value in data set [2] is given as “C”. In data set [3], the “Insecticidal activity rating, Housefly” value is recorded as “A”.
